Source: patent publication US20250017907A1, “METHOD FOR PREVENTING AND/OR TREATING LIVER FIBROSIS BY USING 6-METHOXYBENZOXAZOLINONE AND COIX LACHRYMA-JOBI L. EXTRACT COMPRISING 6-METHOXYBENZOXAZOLINONE” (Taichung District Agricultural Research and Extension …, priority 2023, published 2025)

Assays:
HSC-T6 cells = assay: MTT cell viability assay; format: cell-based, rat; conditions: 0-800 μM, 24 h
Protocol: (§1) The procedure of cell cultures is as follows. HSC-T6 cell is an immortalized cell line isolated from transformed SV40 large T-antigen transformed primary stellate cells of male Sprague-Dawley rats. HSC-T6 cells were maintained in Dulbecco's Modified Eagle Medium (DMEM, Sigma-Aldrich, USA) containing 8% fetal bovine serum (FBS, HyClone, USA), 100 U/mL of penicillin, and 100 μg/mL of streptomycin (Gibco, USA).
The procedure of cell viability assay is as follows. HSC-T6 cells were seed at 1.5×10^4 in 96-well plates and were incubated with CX (0-800 μM) or adlay extracts (0-800 μg/mL) for 24 h. Followed by the determination of cell viability with MTT [3-(4,5-Dimethyl-2-thiazolyl)-2,5-diphenyl-2H-tetrazolium bromide] (Sigma-Aldrich, USA). Briefly, MTT was added to each well at a final concentration of […] and was incubated at 37° C. for 1 h. Next, removed the MTT and added the DMSO to dissolve MTT-formazan crystals formed by metabolically viable cells. Finally, the absorbance of each well was detected by a spectrophotometer at the wavelength of 570 nm.

[1] = tested on: TAA-induced liver fibrotic C57BL/6J mice; assay: Liver histopathological observation (H&E, Sirius Red, IHC staining); format: in vivo; conditions: 6 weeks; for collagen deposition (Sirius Red) / inflammatory infiltration (H&E) / liver structure deformation (H&E) / α-SMA expression (IHC): vs TAA group
Protocol: According to the present invention, animals used in the following examples are described as follows. Male C57BL/6J mice (5-week-old) were from the National Laboratory Animal Center (Taipei, Taiwan), and housed in a temperature-controlled room on a 12 h light-dark cycle with free access to food and drinking water at the Animal Center of the National Yang Ming Chiao Tung University (Taipei, Taiwan). All experiments were approved by Institutional Animal Care and Use Committee of National Yang Ming Chiao Tung University. […]
For tests of CX, mice were randomly divided into the following four groups (n=8, per group): (1) NT group, (2) TAA group (200 mg/kg), (3) CX group (CX20, 20 mg/kg), and (4) CX group (CX50, 50 mg/kg). NT group received pure saline, and other groups intraperitoneally injected with TAA dissolved into saline thrice a week. Moreover, NT group and TAA group also received 5% propylene glycol, while CX groups received CX dissolved into 5% propylene glycol (prepared in 0.9% saline) by oral gavage once per day. […]
The procedure of liver histopathological observation is as follows. After fixation in 10% neutral buffered formalin solution, the liver tissues were embedded with paraffin and then sliced into 4 μm-thickness sections. Pathological sections were examined to assess the change of tissue architecture with the H&E staining kit (CIS-Biotechnology, Taiwan), the condition of collagen deposition with the Sirius Red staining kit (CIS-Biotechnology, Taiwan), and the expression of specific proteins in tissue with the immunohistochemistry kit (Agilent, USA), as well as phospho-SMAD2 (1:100; GeneTex, USA), phospho-SMAD3 (1:100; GeneTex, USA), and α-SMA (1:100; GeneTex, USA) antibodies.
To examine the effects of CX on liver fibrosis, this example established a TAA-induced liver fibrotic C57BL/6J mouse model. FIG. 6 is a schematic diagram of animal experiment design in 6-methoxybenzoxazolinone (6-MBOA) (CX) groups. For animal experiments, 6-week-old C57BL/6J mice were randomly divided into four groups including NT, TAA, CX20 (TAA+20 mg/kg CX), CX50 (TAA+50 mg/kg CX). (n=8 per group). Mice were given intraperitoneal injection of TAA thrice a week to induce liver fibrosis; they also received CX or the vehicle by oral gavage once per day. At the end of animal tests, mice were sacrificed at 12 weeks of age. Six-week-old mice were randomly divided into four groups, namely NT, TAA, CX20 and CX50 (FIG. 6). Among these groups, only the NT group was oral gavaged and administered with vehicle, the TAA group was oral gavaged with vehicle and administered with TAA, and the CX groups were oral gavaged with CX and administered with TAA. Oral gavage was performed once a day while intraperitoneal injection was given thrice a week; both oral gavage and intraperitoneal injection were continuously administered for six weeks. After that, the mice were sacrificed, and their liver tissues and serum were collected for subsequent analyses.

[2] = tested on: TGF-β1-activated HSC-T6 cells; assay: Real-time PCR of inflammatory factors; format: cell-based, rat; conditions: HSC-T6, TGF-β1 10 ng/mL, 24 h
Source text: The procedure of real-time PCR analysis is as follows. Total RNA was extracted with the Trizol reagent (Ambion, USA) and then reverse-transcribed into cDNA with RevertAid First Strand cDNA Synthesis kit (Thermo Scientific, USA). The PCR amplification was accomplished with SYBR Green PCR Master Mix (Applied Biosystems, USA), and the mRNA expression of the gene was normalized to GAPDH. All primers were obtained from Genomics (Genomics, Taiwan). Rat primer sequences are used for real-time PCR of HSC-T6 cells, and mouse primer sequences are used for real-time PCR of C57BL/6J mice.
as §1
(§2) For hepatic stellate cell (HSC) activation, cells were cultured for 24 h and then replaced with serum-free medium for 24 h, after that, treated with transforming growth factor beta 1 (TGF-β1) (10 ng/mL) in the presence or absence of CX (10-100 μM) or adlay leaf, root, and seed extracts (25 and 50 μg/mL) for 24 h, or 30 min for intracellular signal pathways.

[3] = tested on: TGF-β/SMAD signaling pathway; assay: Western blot of TGF-β/SMAD signaling pathway proteins; format: cell-based, rat; conditions: HSC-T6, TGF-β1 10 ng/mL, CX 10-100 μM
Protocol: as §1, §2
The procedure of Western blot analysis is as follows. Cells were lysed in RIPA buffer with protease inhibitor and then centrifuged at 4° C., 12000 rpm for 10 min. Collected the supernatant and quantified the total protein concentration to 50 μg. After heating at 95° C. for 10 min, the protein samples were separated by SDS-PAGE gel, transferred to PVDF membrane, followed by blocking with 6% milk, incubated with primary antibodies at 4° C., overnight and secondary antibodies at room temperature for 1 h. Blot images were visualized on Amersham Imager 680 (Cytiva, USA) with ECL agent (GeneDireX, USA).

[4] = CX20: 20 mg/kg oral gavage once per day
[5] = CX50: 50 mg/kg oral gavage once per day

## COc1ccc2[nH]c(=O)oc2c1 [CX, 6-methoxybenzoxazolinone]
HSC-T6 cells
  dose with no significant effects on cell viability: below 400 μM
[1]; [4]
  collagen deposition (Sirius Red): significantly reduced
  inflammatory infiltration (H&E): significantly reduced
  liver structure deformation (H&E): significantly reduced
  α-SMA expression (IHC): significantly reduced
[1]; [5]
  p-SMAD2 expression (IHC): negatively regulated
  p-SMAD3 expression (IHC): negatively regulated
  collagen deposition (Sirius Red): significantly reduced
  inflammatory infiltration (H&E): significantly reduced
  liver structure deformation (H&E): significantly reduced
  α-SMA expression (IHC): significantly reduced
[2]; CX 10, 20, 50, 100 μM
  TGF-β1-induced IL-6 mRNA level: dose-dependently decreased
  TGF-β1-induced TNF-α mRNA level: dose-dependently decreased
[2]; CX at the highest dose (100 μM)
  IL-10 mRNA level: significantly increased
[3]
  NOX4 expression (Western blot): decreased
  SNAIL1/2 expression (Western blot): decreased
  TWIST1/2 expression (Western blot): decreased
  ZEB1 expression (Western blot): decreased
[3]; 30 min
  TGF-β1-stimulated SMAD2 phosphorylation (p-SMAD2, Western blot): decreased with increasing dose
  TGF-β1-stimulated SMAD3 phosphorylation (p-SMAD3, Western blot): decreased with increasing dose
